From patent publication US20260174682A1, “GAMMA-AMINOBUTYRIC ACID DERIVATIVE COMPRISING POLYCYCLIC STRUCTURE, METHOD FOR PREPARING SAME, AND USE THEREOF” (ZHONGSHAN INSTITUTE FOR DRUG DISCOVERY, SIMM, CAS., priority 2022, published 2026)
Read-outs that look alike come from different tables or passages of the source. Marks after values point to notes of the source that are not given here.

Assays:
[1] = system: mouse maximum electroshock model (MES); test: Antiepileptic effect in mouse maximum electroshock model (MES); assay type: in vivo; conditions: MES, ICR mice, gavage, dose 300 mg/kg
Experimental: A negative vehicle control group, a positive drug control group (pregabalin and gabapentin) and a test group of the compounds of the present application were set. Male ICR mice with a body weight of […] were selected. […] After fasted for 12 h, the mice were administered the compounds of the present application or the control drugs according to the body weight, and then subjected to electrical stimulation to induce generalized tonic-clonic seizure behaviors after a certain lime interval (2 h for pregabalin, 1 h for gabapentin, and 3 h for the compounds of the present application). A YLS-9A electrophysiological stimulator (Shanghai Xinruan Information Technology Co., Ltd.) was used in an induction model, and parameters were set as follows: configuration 8, stimulation voltage 160 V, wave number 90. When the electrical stimulation was performed, ears on both sides of the mice were firstly wiped with normal saline and then given the electrical stimulation for 1 lime with ear clip electrodes. Tonic straightening of hind limbs was used as a standard for epilepsy seizures. The animals with the tonic straightening of hind limbs were regarded as not being protected by the drugs, and the animals without the tonic straightening of hind limbs were regarded as being protected by the drugs. Response situations of the animals were observed and recorded, and obtained data were counted to calculate protection rates of the compounds.
Median effective doses (ED50) of the compounds to be tested for animal protection were calculated by a least square method (Graphpad Prism 5) with an administration dose-protection rate curve.

[2] = system: mouse 6-Hz psychomotor seizure model; test: Antiepileptic effect in mouse 6-Hz psychomotor seizure model; assay type: in vivo; conditions: 6-Hz model, C57BL/6 mice, gavage, dose 300 mg/kg
Experimental: A negative vehicle control group, a positive drug control group (pregabalin and gabapentin) and a test group of the compounds of the present application were set. Male C57BL/6 mice with a body weight of 20±2 g were selected. […] After fasted for 12 h, the mice were administered the compounds of the present application or the control drugs, and then subjected to 6-Hz electrical stimulation to induce epilepsy seizure behaviors after a certain time interval (2 h for pregabalin, 1 h for gabapentin, 1 h for levetiracetam, and 3 h for the compounds of the present application). In an induction model, when the stimulation was performed with a Model 4100 stimulator (A-M Systems, the United States), rear necks of the mice were immobilized by hands on a feeding cage, a corneal electrode was moisten with normal saline and allowed to gently contact bilateral corneas of the mice, the electrical stimulator was trod by a foot to give the mice the electrical stimulation with a stimulation parameter of 6-Hz, a one-way square wave of 32 mA, a wave width of 0.2 ms and a stimulation duration of 3 sec, and timing was performed with a stopwatch during the stimulation. After the electrical stimulation was completed, the mice with the seizure behaviors lasting for less than 7 sec were regarded as being protected by the drugs, and the mice with the seizure behaviors lasting for more than 7 sec were regarded as being not protected from the epilepsy by the drugs. Response situations of the animals were observed and recorded, and obtained data were counted to calculate protection rates of the compounds.
Statistical method: The protection rates of different administration groups were separately compared with that of the vehicle control group to carry out a Fisher's exact test.

[3] = system: mouse model with subcutaneous injection of pentylenetetrazole (sc-PTZ); test: Antiepileptic effect in mouse model with subcutaneous injection of pentylenetetrazole (sc-PTZ); assay type: in vivo
Experimental: A negative vehicle control group, a positive drug control group (pregabalin and gabapentin) and a test group of the compounds of the present application were set. Male ICR mice with a body weight of 22±2 g were selected. […] After fasted for 12 h, the mice were administered the compounds of the present application or the control drugs, and then subcutaneously injected with pentylenetetrazole (PTZ) to induce epilepsy seizure behaviors after a certain time interval (2 h for pregabalin, 1 h for gabapentin, and 3 h for the compounds of the present application). In an induction model, pentylenetetrazole (PTZ) was dissolved in normal saline and administered to the mice through the way of subcutaneous injection (10 mL/kg, administration dose 100 mg/kg). After the injection of PTZ, behavioral observations on the mice were conducted for 1 h, and the latent periods and numbers of the mice with convulsive seizures, clonic seizures, tonic seizures and death after the injection of PTZ were recorded.
Statistical method: Protection rates and mortality of different administration groups were separately compared with those of the vehicle control group to carry out a Fisher's exact test. The seizure time and the latent periods were analyzed by one-way ANOVA.

postherpetic neuralgia = conditions: cited from earlier work
[4] = system: diabetic peripheral neuropathic pain; conditions: cited from earlier work
[5] = sc-PTZ 100 mg/kg, ICR mice, intraperitoneal 30 mg/kg (own compounds calculated by free base), 1 h observation

SMILES | Number of animals with tonic straightening of hind limbs/total number of detected animals [1] | Protection rate (%) [1] | Number of animals with clonic seizures/total number [2] | Protection rate (%) [2] | Clonic seizure incidence [3, 5] | Convulsive seizure incidence [3, 5] | Generalized clonic seizure incidence [3, 5] | Mortality [3, 5] | Tonic seizure incidence [3, 5] | improvement of the convulsive seizure incidence and the mortality ([3]; sc-PTZ mice, 30 mg/kg) | latent periods of generalized clonic seizures, tonic seizures and death ([3]; sc-PTZ mice, 30 mg/kg (calculated by free base), FIG. 6) | clinical effective rate (postherpetic neuralgia; daily dose up to 1,800 mg/day) | clinical effective rate (postherpetic neuralgia; daily dose up to 2,400 mg/day) | clinical effective rate (postherpetic neuralgia; daily dose up to 3,600 mg/day) | clinical effective rate ([4]; 60 mg/day) | clinical effective rate ([4]; 120 mg/day)
NCC1(CC(=O)O)CCCCC1 [Gabapentin] | 2/8 | 75.0% | 2/4 | 50.0 * % | 10/10 | 10/10 | 10/10 | 7/10 | 6/10 | does not significantly improve | not effective | 32% | 34% | 43% |  | 
CNCC[C@H](Oc1cccc2ccccc12)c1cccs1 [duloxetine] |  |  |  |  |  |  |  |  |  |  |  |  |  |  | 49% | 52%
